# Reference: publication PMC5707067, “Farnesyl phenolic enantiomers as natural MTH1 inhibitors from Ganoderma sinense” (Oncotarget, 2017)
# What was measured:
# [1] = tested on: human ES-2 ovarian carcinoma cells (ES-2); test: CCK8 cytotoxicity assay, ES-2; type: cell-based; details: Homo sapiens, Ovarian carcinoma cell; CCK8, 48 h, carcinoma cell line
# Excerpt: The growth inhibitory effects of the isolated farnesyl phenolic compounds (1–8) against carcinoma cell lines [human osteosarcoma cells (U2OS), human colorectal carcinoma cells (SW620), human ES-2 ovarian carcinoma cells (ES-2)] and normal tissue cell lines [human hepatic cells (Lo2), African green monkey kidney vero cells (Vero)] were further investigated using CCK8 assay method (Table 3).
# Carcinoma cell lines [human osteosarcoma cells (U2OS), human colorectal carcinoma cells (SW620), human ES-2 ovarian carcinoma cells (ES-2)] and normal tissue cell lines [human hepatic cells (Lo2), African green monkey kidney Vero cells (Vero)] The U2OS, SW620, ES-2, Lo2 and Vero were obtained from ATCC (Manassas, VA, USA). The SW620 and Vero cells were cultured in Roswell Park Memorial Institute medium (RPMI), with 10% fetal bovine serum (Hyclone) and 1% penicillin-streptomycin (Sigma). Lo2, U2OS and ES-2 cells were grown in Dulbecco's modified eagle medium (DMEM), with 10% fetal bovine serum (Hyclone) and 1% penicillin-streptomycin (Sigma). All of these cells were cultured at 37°C in a humidified atmosphere with 5% CO2. For CCK8 assay cytotoxicity evaluation of compounds, all cells were separately plated at a density of 1 × 10^4 cells/well in a 96 well plate. Cells were cultivated at 37°C in 5% CO2 atmosphere for 24 h, then medium in the wells was replaced with fresh medium containing compounds which were diluted in 8 dilution steps covering the range from 200 μM to 1.5625 μM. And DMSO was used as negative control. After 48 h incubation, 10 μL of CCK8 solution was added to each well. After 30 min, the optical density (OD) of each well was measured at wavelength of 450 nm on spectrophotometer. Data were corrected for background (no-cell control) and expressed as a percentage of the value for untreated cells. The IC50 values of the isolated compounds were derived from the mean OD values of the triplicate tests versus the drug concentration curves.
# [2] = tested on: SW620 cells; test: Apoptosis analysis (Annexin V/PI flow cytometry); type: cell-based, human; details: 24 hours, control group 12.03%
# Experimental: The apoptosis of cells induced by compounds was further investigated. SW620 cells were pretreated with series concentration of compound 1 for 24 hours. The number of apoptosis cells was quantified by flow cytometry.
# Figure 5 Compound 1 induced DNA damage and hindered the replication of DNA in cancer cells causing cell apoptosis (A) SW620 cells were treated with 0, 50 or 150 μM of compound 1 and then processed for FACS by using Annexin V/propidium iodide staining. (B, C) Immunofluorescence staining analysis of EDU^+ and quantification of EDU^+ in SW620 cells treated with 0, 50 or 150 μM of compound 1. Stained graphs were observed through a fluorescence microscope (× 200 magnification). Bar = 20 μm. Data are shown as mean ± s.d. (n = 3). (D, E, F) Immunofluorescence staining analysis of 53BP1 and quantification of 53BP1 foci formation in SW620 treated for 24 h with 50 μM of compound 1. It was observed through a confocal microscope (× 400 magnification). Bar = 50 μm Data are shown as mean ± s.d. (n = 3). […]
# Apoptotic cells were staining with Annexin-V-FITC and Propidium Iodide (PI) (Annexin V-FITC/PI double staining cell apoptosis detection kit) following the manufacturer's protocol. Fluorescence was recorded by flow cytometry using the FACSort (BD Bio sciences).
# [3] = tested on: SW620 cells; test: EdU cell proliferation assay; type: cell-based, human; details: 50 μM or 150 μM vs control, P<0.001
# Experimental: EdU cell proliferation assays were carried out to detect the effects of compounds on DNA replication. EdU (5-Ethynyl-2- deoxyuridine), a thymidine analog, can penetrate into the replicating DNA molecule. Based on the specific response of EdU and fluorescent dyes, DNA replication activity could be detected.
# SW620 cells were pretreated with 0, 50, 150 μM of compound 1, respectively. Dissociated cells were handled with EdU cell proliferation kit (RiboBio) according to the manuscript by according to the manufacturer's instructions. Then the morphology was observed by fluorescence microscopy (Zeiss, OBSERVER D1/AX10 cam HRC).
# [4] = tested on: SW620 cells (53BP1 foci); test: 53BP1 foci immunofluorescence; type: cell-based, human; details: 50 μM, 24 h vs control, P<0.01
# Experimental: Meanwhile, MTH1 could prevent the mispairing of bases during replication and transversion mutations. Presumably, its inhibitors could cause DNA damage. P53 binding protein 1 (p53-binding, protein 1, 53BP1) is an important regulatory factor in response to double strand breaks.
# Cells which adhered to glass coverslips were treated with DMSO or compounds (50 μM) for 24 h. Then cells were washed with PBS and then fixed with 3% paraformaldehyde in PBS for 20 min […]. Fixed cells were rinsed with PBS and incubated with penetrating agent (0.5% Triton-X-100) in PBS for 5 min. Next, cells were stained with an anti-53BP1 monoclonal antibody (abcam, diluted 1:250). Then the coverslips were rinsed with PBS at least 3 times andincubated with an Alexa Fluor 568 goat anti-rabbit IgG secondary antibody. After PBS rinsing, coverslips were stained with DAPI (sigma). Then the morphology was observed by confocal microscopy (Zeiss, OBSERVER D1/AX10 cam HRC).
smiles,measurement,setting,value
"CO[C@]1(c2cc(O)cc(O)c2)C=C(CCCC(CO)CC/C=C(\C)COC(=O)/C=C/c2ccc(O)cc2)C(=O)O1 (stereo partly drawn) [Compound 1, (5R)-3-{9-[(E)-coumaroyl]-4-hydroxymethyl-8-methyl-7-nonene}-5-(3,5-dihydroxyphenyl)-5-methoxy-2(5H)-furanone]",IC50,[1],55.5 ± 1.08 µM
same,SW620 cells apoptotic death,[2]; 50 μM,45.09%
same,SW620 cells apoptotic death,[2]; 150 μM,91.11%
same,percentage of EdU+ cells,[3],significantly deceased
same,53BP1 foci formation,[4],significantly aggregated
